Measurements as given in PubChem BioAssay (NCI).
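Step 1: Grow cells in 96-well plates. Step 2: Expose to compound for 48 hours at 5 concentrations. Step 3: Interpolate endpoints linearly; if unreached, use highest concentration. TGI marks complete inhibition of growth.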

Assays:
Experiment in all cases: NCI anticancer screen, dose series, 48 h
[1] = system: RPMI-8226 leukemia
[2] = system: SN12C renal
[3] = system: 786-0 renal
[4] = system: SF-539 CNS
[5] = system: HCT-116 colon
[6] = system: A498 renal
[7] = system: PC-3 prostate
[8] = system: M14 melanoma
[9] = system: BT-549 breast
[10] = system: SK-MEL-2 melanoma
[11] = system: KM12 colon
[12] = system: SK-MEL-28 melanoma
[13] = system: MCF7 breast
[14] = system: NCI-H23 lung
[15] = system: HCC-2998 colon
[16] = system: SF-268 CNS
[17] = system: HS 578T breast
[18] = system: K-562 leukemia
[19] = system: SK-MEL-5 melanoma
[20] = system: OVCAR-4 ovarian
[21] = system: NCI-H460 lung
[22] = system: NCI-H226 lung
[23] = system: UACC-62 melanoma
[24] = system: OVCAR-5 ovarian
[25] = system: MALME-3M melanoma
[26] = system: SK-OV-3 ovarian
[27] = system: MOLT-4 leukemia
[28] = system: HT29 colon
[29] = system: HOP-92 NSCLC
[30] = system: SR leukemia
[31] = system: CAKI-1 renal
[32] = system: SNB-75 CNS
[33] = system: IGROV1 ovarian
[34] = system: DU-145 prostate
[35] = system: RXF 393 renal
[36] = system: MDA-N
[37] = system: UO-31 renal
[38] = system: U251 CNS
[39] = system: A549 NSCLC
[40] = system: SW-620 colon
[41] = system: COLO 205 colon
[42] = system: HOP-62 NSCLC
[43] = system: OVCAR-8 ovarian
[44] = system: SF-295 CNS
[45] = system: NCI/ADR-RES ovarian
[46] = system: ACHN renal
[47] = system: MDA-MB-231 breast
[48] = system: TK-10 renal
[49] = system: EKVX NSCLC
[50] = system: SNB-19 CNS
[51] = system: OVCAR-3 ovarian
[52] = system: CCRF-CEM leukemia
[53] = system: HL-60(TB) leukemia
[54] = system: HCT-15 colon
[55] = system: UACC-257 melanoma
[56] = system: LOX IMVI melanoma
[57] = system: NCI-H522 lung
[58] = system: MDA-MB-435
[59] = system: T-47D breast

SMILES: COc1cc(C2c3cc4c(cc3OC(N3CCCCC3)C2C)OCO4)cc(OC)c1OC (configuration not stated)
- TGI [1]: 37.9 µM
- TGI [2]: > 100 µM
- TGI [3]: 16.3 µM
- TGI [4]: 5.9 µM
- TGI [5]: 15.3 µM
- TGI [6]: 12.8 µM
- TGI [7]: > 100 µM
- TGI [8]: 15 µM
- TGI [9]: > 100 µM
- TGI [10]: 14.9 µM
- TGI [11]: 37.4 µM
- TGI [12]: > 100 µM
- TGI [13]: 19.4 µM
- TGI [14]: > 49.8 µM
- TGI [15]: 8.39 µM
- TGI [16]: > 53.7 µM
- TGI [17]: 7.23 µM
- TGI [18]: 13.7 µM
- TGI [19]: 17.6 µM
- TGI [20]: > 100 µM
- TGI [21]: 18 µM
- TGI [22]: 13.5 µM
- TGI [23]: 47 µM
- TGI [24]: > 45.7 µM
- TGI [25]: > 84.6 µM
- TGI [26]: 12.6 µM
- TGI [27]: 67.4 µM
- TGI [28]: 19.8 µM
- TGI [29]: 48.1 µM
- TGI [30]: > 54.2 µM
- TGI [31]: 17.5 µM
- TGI [32]: 19.3 µM
- TGI [33]: 26 µM
- TGI [34]: 19.8 µM
- TGI [35]: 5.49 µM
- TGI [36]: 3.28 µM
- TGI [37]: 46.2 µM
- TGI [38]: 12.7 µM
- TGI [39]: 36.1 µM
- TGI [40]: > 55.4 µM
- TGI [41]: 11.3 µM
- TGI [42]: 10.2 µM
- TGI [43]: > 63.6 µM
- TGI [44]: 5.77 µM
- TGI [45]: 17.1 µM
- TGI [46]: 28.7 µM
- TGI [47]: 21 µM
- TGI [48]: 35.4 µM
- TGI [49]: > 100 µM
- TGI [50]: 26.2 µM
- TGI [51]: 6.66 µM
- TGI [52]: 23.2 µM
- TGI [53]: > 22.2 µM
- TGI [54]: > 100 µM
- TGI [55]: > 82.7 µM
- TGI [56]: 45 µM
- TGI [57]: 9.99 µM
- TGI [58]: 2.91 µM
- TGI [59]: > 53.8 µM

SMILES: COc1cc2c(cc1OC)C(=O)/C(=C/c1ccccc1)CC2
- TGI [1]: > 100 µM
- TGI [2]: > 100 µM
- TGI [3]: > 100 µM
- TGI [4]: > 100 µM
- TGI [5]: > 100 µM
- TGI [6]: 44.8 µM
- TGI [7]: > 100 µM
- TGI [8]: > 100 µM
- TGI [9]: 74.1 µM
- TGI [10]: 29.8 µM
- TGI [11]: 35.5 µM
- TGI [12]: > 100 µM
- TGI [13]: > 100 µM
- TGI [14]: > 100 µM
- TGI [15]: 54.9 µM
- TGI [16]: > 100 µM
- TGI [17]: > 100 µM
- TGI [18]: > 100 µM
- TGI [19]: 35.2 µM
- TGI [20]: > 100 µM
- TGI [21]: > 100 µM
- TGI [22]: 74.6 µM
- TGI [24]: > 100 µM
- TGI [25]: > 100 µM
- TGI [26]: 97.5 µM
- TGI [27]: 71.2 µM
- TGI [28]: 46.2 µM
- TGI [29]: 67.3 µM
- TGI [30]: > 100 µM
- TGI [31]: 48.3 µM
- TGI [32]: > 100 µM
- TGI [33]: > 100 µM
- TGI [34]: > 100 µM
- TGI [35]: > 100 µM
- TGI [36]: > 100 µM
- TGI [37]: > 100 µM
- TGI [38]: > 100 µM
- TGI [39]: > 100 µM
- TGI [40]: > 100 µM
- TGI [41]: 38.8 µM
- TGI [42]: > 100 µM
- TGI [43]: > 100 µM
- TGI [44]: 41.1 µM
- TGI [45]: 70 µM
- TGI [46]: > 100 µM
- TGI [47]: > 100 µM
- TGI [48]: > 100 µM
- TGI [49]: > 100 µM
- TGI [50]: > 100 µM
- TGI [51]: > 100 µM
- TGI [52]: > 100 µM
- TGI [53]: 17.2 µM
- TGI [54]: 50.3 µM
- TGI [55]: > 100 µM
- TGI [56]: > 100 µM
- TGI [57]: > 100 µM
- TGI [58]: > 100 µM
- TGI [59]: > 100 µM
